Reference: ChEMBL document CHEMBL2380213, “Conformational restriction approach to BACE1 inhibitors II: SAR study of the isocytosine derivatives fixed with a cis-cyclopropane ring” (Bioorg Med Chem Lett, 2013)

What follows are molecules tested against Beta-secretase 1 (Homo sapiens, UniProt P56817) (assay: Inhibition of human recombinant BACE1 expressed in Escherichia coli BL21(DE3) using Biotin-XSEVNLDAEFRHDSGC-Eu as substrate after 3 hrs by HTRF assay).
Chain of Beta-secretase 1 (P56817 whole entry): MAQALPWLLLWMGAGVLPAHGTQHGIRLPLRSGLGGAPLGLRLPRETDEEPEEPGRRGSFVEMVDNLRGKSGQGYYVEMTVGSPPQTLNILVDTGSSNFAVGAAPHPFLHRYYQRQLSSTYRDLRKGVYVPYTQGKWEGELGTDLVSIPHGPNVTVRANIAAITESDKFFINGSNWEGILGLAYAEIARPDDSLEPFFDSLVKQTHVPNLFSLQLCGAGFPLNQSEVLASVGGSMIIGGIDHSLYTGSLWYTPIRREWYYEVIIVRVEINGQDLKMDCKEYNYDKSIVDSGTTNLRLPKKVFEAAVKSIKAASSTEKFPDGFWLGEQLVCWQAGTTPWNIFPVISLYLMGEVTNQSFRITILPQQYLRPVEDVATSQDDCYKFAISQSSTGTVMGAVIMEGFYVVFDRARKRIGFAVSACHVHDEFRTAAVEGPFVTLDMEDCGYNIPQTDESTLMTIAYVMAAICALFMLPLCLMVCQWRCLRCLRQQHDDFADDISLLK
`Cc1cccc(CCc2cccc([C@@H]3C[C@@H]3c3cc(=O)n(C)c(N)n3)c2)c1` was tested, and the IC50 was over 200 µM.
`Cc1ccc(CCc2cccc([C@@H]3C[C@@H]3c3cc(=O)n(C)c(N)n3)c2)cc1` gave an IC50 of over 200 µM.
Molecule `CCOc1cccc(-c2cccc([C@@H]3C[C@@H]3c3cc(=O)n(C)c(N)n3)c2)c1` has an IC50 of 39.4 µM.
With `Cc1ccccc1CCc1cccc([C@@H]2C[C@@H]2c2cc(=O)n(C)c(N)n2)c1` the IC50 was 120 µM.
`COc1ccc(-c2cccc([C@@H]3C[C@@H]3c3cc(=O)n(C)c(N)n3)c2)cc1` gave an IC50 of 30.8 µM.
`Cn1c(N)nc(CCc2cccc(CCc3ccccc3)c2)cc1=O` gave an IC50 of over 200 µM.
In the case of `Cn1c(N)nc([C@H]2C[C@H]2c2cccc(CCc3ccccc3)c2)cc1=O`, the IC50 is reported as 22.2 µM.
In the case of `Cn1c(N)nc([C@H]2C[C@H]2c2cccc(-c3cccc(F)c3)c2)cc1=O`, the IC50 is reported as 72.4 µM.
For `Cc1cccc(-c2cccc([C@@H]3C[C@@H]3c3cc(=O)n(C)c(N)n3)c2)c1`, the IC50 was 74.9 µM.
`CN(C)c1cccc(-c2cccc([C@@H]3C[C@@H]3c3cc(=O)n(C)c(N)n3)c2)c1` was tested, and the IC50 was over 200 µM.
`Cn1c(N)nc([C@H]2C[C@H]2c2cccc(/C=C/c3ccccc3)c2)cc1=O` gave an IC50 of over 200 µM.
For `CSc1cccc(-c2cccc([C@@H]3C[C@@H]3c3cc(=O)n(C)c(N)n3)c2)c1`, the IC50 was 47.5 µM.
`Cn1c(N)nc([C@H]2C[C@H]2c2cccc(CCCc3ccccc3)c2)cc1=O` showed an IC50 of over 200 µM.
`Cn1c(N)nc([C@H]2C[C@H]2c2cccc(-c3cccc(N)c3)c2)cc1=O` showed an IC50 of over 200 µM.
For `COc1cncc(-c2cccc([C@@H]3C[C@@H]3c3cc(=O)n(C)c(N)n3)c2)n1`, the IC50 was 84.9 µM.
With `Cn1c(N)nc([C@H]2C[C@H]2c2cccc(Cc3ccccc3)c2)cc1=O` the IC50 was over 200 µM.
In the case of `COc1cccc(CCc2cccc([C@@H]3C[C@@H]3c3cc(=O)n(C)c(N)n3)c2)c1`, the IC50 is reported as 100 µM.
For `Cn1c(N)nc([C@H]2C[C@H]2c2cccc(C#Cc3ccccc3)c2)cc1=O`, the IC50 was over 200 µM.
